Measured values reported in patent US20010044445A1, “AZOLE INHIBITORS OF CYTOKINE PRODUCTION” (priority 1999, published 2001).
pIC50: −log10 of the molar value.

How the values were obtained:
[1] = system: Human peripheral blood mononuclear cells; assay: Human Concanavalin-A Proliferation Assay (Con HU Assay); type: cell-based; conditions: concanavalin-A stimulated human PBMC; for inhibition at 1 µM / inhibition at 10 µM / pIC50 / inhibition at 100 µM: Homo sapiens, PBMC; for inhibition at 1 µM / inhibition at 10 µM / inhibition at 100 µM: 72 h, read-out: % Inhibition of proliferation (at concentrations of 1,10, or 100 μm); for inhibition at 10 µM: concentration 10 μm (in parentheses in the cell); for pIC50: tritiated thymidine; for inhibition at 100 µM: concentration 100 μm (in parentheses in the cell)
Procedure, shortened: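 Proliferation read as tritiated thymidine uptake (0.5 μCi/well, 6 h pulse on day 3) in human PBMC cultured 3 days with 2.5 μg/ml (final) concanavalin-A. Cells, 50,000 per well in supplemented RPMI 1640 with 10% FBS, received compound 15 min before mitogen.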

[2] = concentration 1 μm (in parentheses in the cell), 3 days

Compound	melting point [°C]	inhibition at 1 µM [1, 2] [%]	inhibition at 10 µM ([1]; 3 days) [%]	pIC50 [1]	inhibition at 100 µM ([1]; 3 days) [%]	% Inhibition of proliferation (at concentrations of 1,10, or 100 μm) [1, 2]
NS(=O)(=O)c1cccc(C(=O)Nc2ccc(-n3nc(C(F)(F)F)cc3C(F)(F)F)cc2)c1 [Example 141, 3-(aminosulfonyl)-N-[4-[3,5-bis(trifluoromethyl)-1H-pyrazol-1-yl]phenyl]benzamide]	177 to 178	4				
O=C(Nc1ccc(-n2nc(C(F)(F)F)cc2C(F)(F)F)cc1)c1ccc(O)c(O)c1 [Example 181, N-[4-[3,5-bis(trifluoromethyl)-1H-pyrazol-1-yl]phenyl]-3,4-dihydroxybenzamide]	233 to 235		100	5.65		
Cc1nnsc1C(=O)Nc1ccc(-n2nc(C(F)(F)F)cc2C(F)(F)F)c(C(F)(F)F)c1 [Example 276, N-[4-[3,5-bis(trifluoromethyl)-1H-pyrazol-1-yl]-3-(trifluoromethyl)phenyl]-4-methyl-1,2,3-thiadiazole-5-carboxamide]	134 to 136	16				
O=C(Nc1ccc(-n2nc(C(F)(F)F)cc2C(F)(F)F)cc1)Nc1ccc(Cl)c([N+](=O)[O-])c1 [Example 79, N-[4-[3,5-bis(trifluoromethyl)-1H-pyrazol-1-yl]phenyl]-N′-(4-chloro-3-nitrophenyl)urea]	207 to 209	9				
O=C(Nc1ccc(-n2nc(C(F)(F)F)cc2C(F)(F)F)cc1)c1c(F)cccc1C(F)(F)F [Example 213, N-[4-[3,5-bis(trifluoromethyl)-1H-pyrazol-1-yl]phenyl]-2-fluoro-6-(trifluoromethyl)benzamide]	175 to 176		100	6.36		
O=C(Nc1ccc(-n2nc(C(F)(F)F)cc2C(F)(F)F)cc1)c1cc(F)cc(F)c1F [Example 231, N-[4-[3,5-bis(trifluoromethyl)-1H-pyrazol-1-yl]phenyl]-2,3,5-trifluorobenzamide]	169 to 170		100	7.60		
O=C(Nc1ccccc1[N+](=O)[O-])c1ccc(-n2nc(C(F)(F)F)cc2C(F)(F)F)cc1 [Example 190, 4-[3,5-Bis(trifluoromethyl)-1H-pyrazol-1-yl]-N-(2-nitrophenyl)benzamide]	173 to 175	3				
O=C(Nc1ccc(-n2nc(C(F)(F)F)cc2C(F)(F)F)cc1)C1CC1c1ccccc1 (stereo not drawn) [Example 68, N-[4-[3,5-bis(trifluoromethyl)-1H-pyrazol-1-yl]phenyl]-2-phenylcyclopropanecarboxamide]	176 to 178			5.61	99	
Nc1ccc(C(=O)Nc2ccc(-n3nc(C(F)(F)F)cc3C(F)(F)F)cc2)cc1 [Example 59, 4-Amino-N-[4-[3,5-bis(trifluoromethyl)-1H-pyrazol-1-yl]phenyl]benzamide]	> 240	54				
CC(C(=O)Nc1ccc(-n2nc(C(F)(F)F)cc2C(F)(F)F)cc1)c1ccc(C(=O)c2cccs2)cc1 (stereo not drawn) [Example 178, N-[4-[3,5-bis(trifluoromethyl)-1H-pyrazol-1-yl]phenyl]-α-methyl-4-(2-thienylcarbonyl)benzeneacetamide]	< 100					14(1) %
CC(C)(C)OC(=O)N1CSCC1C(=O)Nc1ccc(-n2nc(C(F)(F)F)cc2C(F)(F)F)cc1 (stereo not drawn) [Example 258, 1,1-Dimethylethyl 4-[[[4-[3,5-bis(trifluoromethyl)-1H-pyrazol-1-yl]phenyl]amino]carbonyl]-3-thiazolidinecarboxylate]	82 to 84	16				
Cc1cc(-n2nc(C(F)(F)F)cc2C(F)(F)F)ccc1NC(=O)c1snnc1C [Example 279, N-[4-[3,5-bis(trifluoromethyl)-1H-pyrazol-1-yl]-2-methylphenyl]-4-methyl-1,2,3-thiadiazole-5-carboxamide]	196 to 197	6				
O=C(Nc1cccc(-n2nc(C(F)(F)F)cc2C(F)(F)F)c1)c1cccc(Cl)c1Cl [Example 198, N-[3-[3,5-bis(trifluoromethyl)-1H-pyrazol-1-yl]phenyl]-2,3-dichlorobenzamide]	119 to 121	4				

More lines, main results first:

melting point [°C]	Compound	inhibition at 1 µM [1, 2] [%]	inhibition at 10 µM ([1]; 3 days) [%]	pIC50 [1]	inhibition at 100 µM ([1]; 3 days) [%]	% Inhibition of proliferation (at concentrations of 1,10, or 100 μm) [1, 2]
188 to 189	Cc1ccc([N+](=O)[O-])c(C(=O)Nc2ccc(-n3nc(C(F)(F)F)cc3C(F)(F)F)cc2)c1 [Example 237, N-[4-[3,5-bis(trifluoromethyl)-1H-pyrazol-1-yl]phenyl]-5-methyl-2-nitrobenzamide]			6.43	100	
163 to 167	Cc1oncc1C(=O)Nc1ccc(-n2nc(C(F)(F)F)cc2C(F)(F)F)cc1 [Example 184, N-[4-[3,5-bis(trifluoromethyl)-1H-pyrazol-1-yl]phenyl]-5-methyl-4-isoxazolecarboxamide]		90	6.38		
172 to 173	CC1CC1C(=O)Nc1ccc(-n2nc(C(F)(F)F)cc2C(F)(F)F)cc1 (stereo not drawn) [Example 7, N-[4-[3,5-bis(trifluoromethyl)-1H-pyrazol-1-yl]phenyl]-2-methylcyclopropanecarboxamide]		97	6.39		
142 to 144	O=C(Nc1ccc(-n2nc(C(F)(F)F)cc2C(F)(F)F)cc1)c1ccc(F)c(C(F)(F)F)c1 [Example 195, N-[4-[3,5-bis(trifluoromethyl)-1H-pyrazol-1-yl]phenyl]-4-fluoro-3-(trifluoromethyl)benzamide]	22				
140 to 143	N#CCC(=O)Nc1ccc(-n2nc(C(F)(F)F)cc2C(F)(F)F)cc1 [Example 52, N-[4-[3,5-bis(trifluoromethyl)-1H-pyrazol-1-yl]phenyl]-2-cyanoacetamide]	26				
195 to 196	NC(=O)c1ccccc1NC(=O)c1ccc(-n2nc(C(F)(F)F)cc2C(F)(F)F)cc1 [Example 196, N-[2-(aminocarbonyl)phenyl]-4-[3,5-bis(trifluoromethyl)-1H-pyrazol-1-yl]benzamide]	11				
213 to 214	O=C(Nc1ccc(-n2nc(C(F)(F)F)cc2C(F)(F)F)cc1)c1ccc(CO)cc1 [Example 107, N-[4-[3,5-bis(trifluoromethyl)-1H-pyrazol-1-yl]phenyl]-4-(hydroxymethyl)benzamide]		99	6.52		
142 to 143	CSc1cc(C(F)(F)F)nn1-c1ccc(NC(=O)c2ccncc2F)cc1 [Example 320, 3-fluoro-N-(4-(5-(methylsulfanyl)-3-(trifluoromethyl)-1H-pyrazol-1-yl)phenyl)isonicotinamide]			7.37		
130 to 131	O=C(Nc1ccc(-n2nc(C(F)(F)F)cc2OC(F)F)cc1)c1ccccc1F [Example 352, N-(4-(5-(difluoromethoxy)-3-(trifluoromethyl)-1H-pyrazol-1-yl)phenyl)-2-fluorobenzamide]			6.85		
194 to 195	Cc1c(C(=O)Nc2ccc(-n3nc(C(F)(F)F)cc3C(F)(F)F)cc2)cccc1[N+](=O)[O-] [Example 15, N-[4-[3,5-bis(trifluoromethyl)-1H-pyrazol-1-yl]phenyl]-2-methyl-3-nitrobenzamide]			6.56	99	
205 to 207	O=C(Nc1ccc(-n2nc(C(F)(F)F)cc2C(F)(F)F)cc1)c1ccc(Br)cc1 [Example 85, N-[4-[3,5-bis(trifluoromethyl)-1H-pyrazol-1-yl]phenyl]-4-bromobenzamide]			6.56	93	
177 to 179	Cc1nnsc1C(=O)Nc1ccc(-n2nc(C(F)(F)F)cc2O)cc1 [Example 288, N-[4-[5-hydroxy-3-(trifluoromethyl)-1H-pyrazol-1-yl]phenyl]-4-methyl-1,2,3-thiadiazole-5-carboxamide]	16				
175 to 177	O=C(Nc1ccc(-n2nc(C(F)(F)F)cc2C(F)(F)F)cc1)c1cnc(Cl)c(Cl)c1 [Example 268, N-[4-[3,5-bis(trifluoromethyl)-1H-pyrazol-1-yl]phenyl]-5,6-dichloro-3-pyridinecarboxamide]		100	6.46		
122 to 123	O=C(Nc1ccc(-n2nc(C(F)(F)F)cc2OC(F)F)cc1)c1ccccc1Cl [Example 353, 2-chloro-N-(4-(5-(difluoromethoxy)-3-(trifluoromethyl)-1H-pyrazol-1-yl)phenyl)benzamide]			6.76		
150 to 152	CC(C)=CC(=O)Nc1ccc(-n2nc(C(F)(F)F)cc2C(F)(F)F)cc1 [Example 102, N-[4-[3,5-bis(trifluoromethyl)-1H-pyrazol-1-yl]phenyl]-3-methyl-2-butenamide]			6.30	100	
88 to 90	CCCCCCC(=O)Nc1ccc(-n2nc(C(F)(F)F)cc2C(F)(F)F)cc1 [Example 56, N-[4-[3,5-bis(trifluoromethyl)-1H-pyrazol-1-yl]phenyl]heptanamide]	32				
213 to 214	COc1cc(C(=O)Nc2ccc(-n3nc(C(F)(F)F)cc3C(F)(F)F)cc2)cs1 [Example 259, N-[4-[3,5-bis(trifluoromethyl)-1H-pyrazol-1-yl]phenyl]-5-methoxy-3-thiophenecarboxamide]	5				
